Legend:
Experiment in all cases: relative viability (nuclei count vs DMSO), 5 days (fraction); higher = more cells survive
[1] = compound: C1=CC=C2C(=C1)C=CC(=C2SSC3=C(C=CC4=CC=CC=C43)O)O [IPA-3] + CC(=O)c1c(C)c2cnc(Nc3ccc(N4CCNCC4)cn3)nc2n(C2CCCC2)c1=O [Palbociclib] (partner 0.5 µM)
Procedure, shortened: (§1)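 Cells from lung cancer lines were seeded into 1536-well plates and, one day later, dosed by pin tool. Treatments were either a single drug or a fixed dose of an anchor drug with five library-drug doses (not always all listed) in √10 steps. After 5 days, nuclei were stained in a one-step fixation (final 0.05% Triton X-100, 1% formaldehyde, 1 ug/ml Hoechst) and counted on 4× images, and relative viability is the treated-to-vehicle nuclei ratio, as the median of duplicate plates.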

[2] = compound: Cn1c(Nc2ccc(C(F)(F)F)cc2)nc2cc(Oc3ccnc(-c4ncc(C(F)(F)F)[nH]4)c3)ccc21 [RAF265] + CC1(C)CCC(c2ccc(Cl)cc2)=C(CN2CCN(c3ccc(C(=O)NS(=O)(=O)c4ccc(N[C@H](CCN5CCOCC5)CSc5ccccc5)c(S(=O)(=O)C(F)(F)F)c4)cc3)CC2)C1 [Navitoclax] (partner 0.5 µM)
Procedure, shortened: as §1

[3] = compound: Cc1ccc(-n2nc(C(C)(C)C)cc2NC(=O)Nc2ccc(OCCN3CCOCC3)c3ccccc23)cc1 [Doramapimod] + Cc1cc(Nc2cc(N3CCN(C)CC3)nc(Sc3ccc(NC(=O)C4CC4)cc3)n2)n[nH]1 [Tozasertib] (partner 0.1 µM)
Procedure, shortened: as §1

[4] = compound: Cn1c(Nc2ccc(C(F)(F)F)cc2)nc2cc(Oc3ccnc(-c4ncc(C(F)(F)F)[nH]4)c3)ccc21 [RAF265] + NC(=O)Nc1cc(-c2cccc(F)c2)sc1C(=O)N[C@H]1CCCNC1 [AZD7762] (partner 0.2 µM)
Procedure, shortened: as §1

Cell Line | relative viability ([1]; first compound 0.2 µM) | relative viability ([1]; first compound 0.6325 µM) | relative viability ([1]; first compound 2 µM) | relative viability ([1]; first compound 6.325 µM) | relative viability ([1]; first compound 20 µM) | relative viability ([2]; first compound 0.01 µM) | relative viability ([2]; first compound 0.03162 µM) | relative viability ([2]; first compound 0.1 µM) | relative viability ([2]; first compound 0.3162 µM) | relative viability ([2]; first compound 1 µM) | relative viability ([3]; first compound 0.02 µM) | relative viability ([3]; first compound 0.06325 µM) | relative viability ([3]; first compound 0.2 µM) | relative viability ([3]; first compound 0.6325 µM) | relative viability ([3]; first compound 2 µM) | relative viability ([4]; first compound 0.01 µM) | relative viability ([4]; first compound 0.03162 µM) | relative viability ([4]; first compound 0.1 µM) | relative viability ([4]; first compound 0.3162 µM) | relative viability ([4]; first compound 1 µM)
NCI-H838 | 0.278 | 0.202 | 0.209 | 0.225 | 0.204 | 1.23 | 1.14 | 1.15 | 1.1 | 1.01 | 0.299 | 0.27 | 0.285 | 0.253 | 0.257 | 0.865 | 0.953 | 0.964 | 1.03 | 0.841
NCI-H1355 | 0.445 | 0.395 | 0.386 | 0.405 | 0.424 | 1.01 | 0.831 | 0.919 | 0.532 | 0.264 | 0.543 | 0.538 | 0.55 | 0.556 | 0.495 | 0.816 | 0.668 | 0.772 | 0.68 | 0.515
NCI-H1395 | 0.681 | 0.524 | 0.634 | 0.608 | 0.61 | 1.46 | 1.16 | 1.15 | 1.28 | 0.867 | 0.765 | 0.778 | 0.783 | 0.761 | 0.717 | 0.403 | 0.382 | 0.422 | 0.419 | 0.393
NCI-H1437 | 0.409 | 0.359 | 0.317 | 0.291 | 0.285 | 1.1 | 1.06 | 1.01 | 1.18 | 1.1 | 0.416 | 0.431 | 0.394 | 0.404 | 0.401 | 1.08 | 1.13 | 1.2 | 1.15 | 1.1
NCI-H1651 | 0.534 | 0.511 | 0.541 | 0.528 | 0.602 | 0.992 | 0.884 | 1.06 | 0.874 | 0.871 | 0.726 | 0.703 | 0.75 | 0.719 | 0.608 | 0.508 | 0.497 | 0.401 | 0.406 | 0.365
NCI-H1666 | 0.643 | 0.672 | 0.624 | 0.616 | 0.658 | 1.01 | 1 | 0.882 | 0.931 | 0.454 | 0.642 | 0.687 | 0.641 | 0.624 | 0.597 | 0.935 | 0.882 | 0.837 | 0.854 | 0.825
NCI-H1734 | 0.366 | 0.19 | 0.359 | 0.345 | 0.361 | 0.886 | 0.656 | 0.825 | 0.628 | 0.348 | 0.273 | 0.267 | 0.229 | 0.284 | 0.235 | 0.545 | 0.516 | 0.437 | 0.325 | 0.217
NCI-H1755 | 0.464 | 0.488 | 0.422 | 0.43 | 0.44 | 0.999 | 0.879 | 0.764 | 0.671 | 0.356 | 0.581 | 0.58 | 0.597 | 0.611 | 0.469 | 0.548 | 0.475 | 0.483 | 0.405 | 0.425
NCI-H1793 | 0.345 | 0.288 | 0.311 | 0.318 | 0.371 | 0.351 | 0.379 | 0.316 | 0.336 | 0.21 | 0.27 | 0.319 | 0.319 | 0.352 | 0.26 | 0.413 | 0.572 | 0.332 | 0.197 | 0.132
NCI-H1915 | 0.498 | 0.514 | 0.534 | 0.495 | 0.54 | 0.76 | 0.72 | 0.712 | 0.407 | 0.281 | 0.438 | 0.464 | 0.489 | 0.459 | 0.384 | 0.649 | 0.655 | 0.663 | 0.602 | 0.41
NCI-H1944 | 0.333 | 0.326 | 0.389 | 0.384 | 0.334 | 1.11 | 1.06 | 1.15 | 0.798 | 0.86 | 0.234 | 0.229 | 0.235 | 0.256 | 0.235 | 0.75 | 0.617 | 0.512 | 0.448 | 0.365
NCI-H1975 | 0.843 | 0.555 | 0.642 | 0.54 | 0.569 | 1.17 | 0.812 | 0.912 | 0.528 | 0.324 | 0.802 | 0.729 | 0.937 | 0.817 | 0.639 | 0.694 | 0.667 | 0.635 | 0.484 | 0.406
NCI-H1993 | 0.702 | 0.732 | 0.656 | 0.516 | 0.545 | 1.1 | 0.947 | 1.08 | 0.719 | 0.783 | 0.688 | 0.564 | 0.622 | 0.598 | 0.565 | 0.784 | 0.82 | 0.791 | 0.602 | 0.635
NCI-H2085 | 0.474 | 0.457 | 0.471 | 0.436 | 0.54 | 1.17 | 1.12 | 1.16 | 1.27 | 1.09 | 0.882 | 0.913 | 0.852 | 0.84 | 0.796 | 1.06 | 0.879 | 1.05 | 1.1 | 0.857
NCI-H2087 | 0.263 | 0.207 | 0.22 | 0.219 | 0.283 | 0.995 | 0.823 | 0.692 | 0.683 | 0.568 | 0.32 | 0.308 | 0.253 | 0.223 | 0.233 | 1.19 | 1.18 | 1.02 | 1.2 | 1.12
NCI-H2126 | 0.33 | 0.369 | 0.335 | 0.343 | 0.375 | 0.813 | 0.826 | 0.866 | 0.687 | 0.616 | 0.843 | 0.835 | 0.812 | 0.926 | 0.777 | 1.04 | 0.962 | 0.968 | 0.935 | 0.848
NCI-H2170 | 0.447 | 0.389 | 0.364 | 0.334 | 0.441 | 0.586 | 0.434 | 0.462 | 0.3 | 0.383 | 0.717 | 0.611 | 0.824 | 0.636 | 0.6 | 0.876 | 0.72 | 0.761 | 0.363 | 0.615
NCI-H2347 | 0.409 | 0.45 | 0.429 | 0.414 | 0.448 | 1.03 | 0.786 | 0.864 | 0.456 | 0.467 | 0.552 |  | 0.565 | 0.587 | 0.555 | 0.74 | 0.7 | 0.832 | 0.46 | 0.22
NCI-H2405 | 0.561 | 0.49 | 0.519 | 0.529 | 0.544 | 0.984 | 0.86 | 0.973 | 0.909 | 0.335 | 0.774 | 0.703 | 0.675 | 0.869 | 0.635 | 0.849 | 0.723 | 0.634 | 0.549 | 0.326
NCI-H3122 | 0.185 | 0.174 | 0.176 | 0.219 | 0.203 | 1 | 1.08 | 1.01 | 1.04 | 0.967 | 0.439 | 0.408 | 0.448 | 0.431 | 0.365 | 1.03 | 1.17 | 1.02 | 0.949 | 0.862
PC-3 [JPC-3] | 0.537 | 0.541 | 0.538 | 0.531 | 0.477 | 0.735 | 0.754 | 0.893 | 0.304 | 0.556 | 0.914 | 0.961 | 0.938 | 1.03 | 0.92 | 0.879 | 0.771 | 0.742 | 0.445 | 0.479
PC-14 | 0.648 | 0.324 | 0.512 | 0.446 | 0.352 | 0.955 | 1.03 | 1.03 | 0.985 | 0.854 | 0.582 | 0.602 | 0.588 | 0.647 | 0.525 | 0.424 | 0.451 | 0.369 |  | 0.378
RERF-LC-KJ | 1.19 | 1.04 | 1.08 | 1.16 | 0.826 | 1.08 | 0.95 | 0.851 | 0.747 | 0.841 | 0.506 | 0.535 | 0.609 | 0.516 | 0.498 | 1.1 | 1.03 | 0.765 | 0.756 | 0.557

Source: the supplement of paper PMC10307832
